US6303596A, “Use of taurolidine for treatment of leukemias” (priority 2000, dated 2001)

Tests used:
[1] = system: K-562; experiment: LDH release (cell membrane integrity), K-562; format: cell-based; conditions: Homo sapiens, K562, 4 h, read-out: LDH (% of total)
Experimental: (§1) FIGS. 6A and 6B depict cell viability and growth rates for K562 cell line following taurolidine treatment, in terms of % trypan blue negative cells and % cell number, respectively. Cells were treated with various concentrations of taurolidine for 4 hours in AIM-V+0.01% BCS. After aliquots were collected for LDH assay, the remainder of the culture was rinsed in HBSS and resuspended in RPMI+10% BCS without taurolidine. Counts of trypan blue-negative cells (FIG. 6A), and total cell number (FIG. 6B), were recorded daily thereafter (with the measurement at Day 1 being made immediately after the 4 hour taurolidine treatment). Conditions were: no treatment (open circles); 25 μg/ml taurolidine (closed circles); 50 μg/ml taurolidine (open squares); 100 μg/ml taurolidine (closed squares); and vehicle alone (closed triangles). Doubling times were determined under each condition, and expressed as a percentage of the rate of doubling of untreated cells. […]
(§2) In these experiments, integrity of cell membranes following taurolidine treatment was assessed by exclusion of trypan blue and by measuring the release of LDH in MM6, K-562, HL-60, and REH cells. […] A parallel aliquot of cells was lysed by three cycles of freeze/thaw and the quantity of LDH released was taken to be 100%. […]
^a LDH was measured immediately after four hour taurolidine treatment.

[2] = system: MM6 cells; experiment: trypan blue exclusion, MM6; format: cell-based, human
Experimental: FIG. 4A and FIG. 4B are graphs depicting cell viability and growth rates following taurolidine treatment as determined by assay procedures. MM6 cells were treated with taurolidine as described in FIG. 3. After aliquots were collected for the lactate dehydrogenase (LDH) assay, the remainder of the culture was rinsed in Hank's balanced salt solution (HBSS) and resuspended in RPMI+10% BCS without taurolidine. Counts of trypan blue-negative cells represented in FIG. 4A and total cell number represented in FIG. 4B were recorded daily thereafter (with the measurement at Day 1 being made immediately after the four hour taurolidine treatment). Conditions were no treatment (open squares); 50 μg/ml taurolidine (closed squares); 25 μg/ml taurolidine (open circles); and vehicle alone (closed circles). Cells were subcultured when they reached a concentration of 6×10^5 cells/ml. Data are mean±SEM of three experiments.
as §1, with “5A” for “6A”, “5B” for “6B”, “MM6” for “K562”, “5A),” for “6A),”, “5B),” for “6B),”, “Conditions were: no treatment (open circles); 25 μg/ml taurolidine (closed circles); 50 μg/ml taurolidine (open squares); 100 μg/ml taurolidine (closed squares); and vehicle alone (closed triangles).” left out
as §2

[3] = system: K562 cells; experiment: trypan blue exclusion, K562; format: cell-based, human; conditions: K562, 25 μg/ml taurolidine
Experimental: as §1, with “Conditions were: no treatment (open circles); 25 μg/ml taurolidine (closed circles); 50 μg/ml taurolidine (open squares); 100 μg/ml taurolidine (closed squares); and vehicle alone (closed triangles).” left out
as §2
HL-60 cells treated with 50 μl taurolidine. In these samples, LDH present in the culture medium was 8.3±2.3% of that released by completely lysed cells, compared with 2.3±0.8% measured in control cultures. […]

[4] = system: GM5387 (fibroblasts); experiment: growth rate (proliferation) after taurolidine treatment, GM5387; format: cell-based, human; conditions: GM5387, 50 and 100 μg/ml taurolidine
Experimental: as §1, with “11A” for “6A”, “11B” for “6B”, “GM5387” for “K562”, “11A),” for “6A),”, “11B),” for “6B),”, “cells. These values are located to the right of the growth curves in (FIG. 11B).” for “cells.”
HL-60 cells treated with 50 μl taurolidine. In these samples, LDH present in the culture medium was 8.3±2.3% of that released by completely lysed cells, compared with 2.3±0.8% measured in control cultures. […] After 4 hour treatment, cells were rinsed and returned to growth medium and monitored for viability and growth over the following 3 days. […]

[5] = septic patients, up to 20 grams for 2-5 consecutive days; cited from earlier work
[6] = intravenous administration; cited from earlier work

Question: What does the source list for `O=S1(=O)CCN(CN2CCS(=O)(=O)NC2)CN1` [taurolidine, 4,4'-methylenebis(perhydro-1,2,4-thiadiazin 1,1-dioxide)]?
Answer: cytotoxicity at 50 µg/mL ([1]; K-562, 50 μg/ml): 6%; cytotoxicity at 100 µg/mL ([1]; K-562, 100 μg/ml): 8%; cytotoxicity at 50 µg/mL ([2]; Homo sapiens, MM6, 50 μg/ml taurolidine for 4 h, untreated and vehicle 5%, read-out: trypan blue-positive cells on the day following treatment (Day 2)): 65%; trypan blue staining after treatment ([2]; MM6, 25 μg/ml taurolidine): did not show an increase in trypan blue staining; trypan blue exclusion immediately after treatment (Day 1) ([2]; MM6, taurolidine-treated 4 h, versus control): equally able to exclude trypan blue; trypan blue staining after treatment [3]: did not show an increase in trypan blue staining; proliferation after treatment [4]: inhibited proliferation; toxicity in humans [5]: has not been associated with toxicity; alterations in hematologic variables, including white cell count [6]: does not cause detectable alterations
